# US7163960B2, “Treatment and prevention of inflammatory disorders” (Monsanto Technology L.L.C., priority 2002, dated 2007)
# Marks after values point to notes of the source that are not given here.
# Legend:
# Assay type in all cases: in vivo, human
# prostaglandin E2 (PGE2) = assay: PGE2 synthesis in LPS-stimulated whole blood; details: for PGE2 synthesis in LPS-stimulated whole blood: mean ± SD
# Protocol: (§1) Following a 3-week run-in period, subjects ingested either ALA, SDA, EPA supplied as ethyl esters in capsules. Intakes were 0.75 g/day for 3 weeks followed by 1.5 g/day for the subsequent 3 weeks.
# (§2) Blood (4 mL) was added to heparinised tubes, bacterial lipopolysaccharide (LPS) was added (200 ng/mL), and the mixture was incubated at 37° C., 5% CO2, for 24 h. Plasma was collected and assayed for prostaglandin E2 (PGE2) by radioimmunoassay (RIA), interleukin-1β (IL-1β) and tumor necrosis factor-α (TNF-α) by ELISA, as described in Mantzioris et al., supra.
# [1] = Fatty acid analysis of blood cell phospholipids and plasma lipid fractions after ingestion of test fatty acids; details: both, human, in vivo
# Description: 45 males and post-menopausal female—19–65 years of age, normolipidemic, and with a body mass index (BMI) in the range 20 to 30, were recruited. Exclusion criteria included bleeding disorders, hypertension, inflammatory disorders, active gastrointestinal diseases, chronic use of low dose aspirin, consumption of restaurant or takeaway evening meals more than twice per week, use of dietary supplements rich in n-3 or n-6 fatty acids, habitual consumption of more than 1 fish meal per month, and plasma phospholipid EPA+DHA levels>7.9% of total fatty acids (level achieved in the study group was 4.9±1.0% of total fatty acids).
# as §1
# At each visit, 36 mL of blood was taken by venepuncture after an overnight fast. Blood was aliquoted into various tubes for the following procedures.
# Blood (20 mL) was added to tubes containing 4 mL 4.5% EDTA in water and 4 mL—6% dextran in normal saline, pH 7.0. Erythrocytes were allowed to sediment under gravity at 37° C. for 30 min. The leucocyte-rich plasma was layered onto LYMPHOPREP, density 1.077 (Nycomed Pharma, Oslo) and centrifuged at 110 g for 10 min to separate leucocytes from the platelets, which were removed. The gradient was further centrifuged at 200 g for 20 min to separate the neutrophils from mononuclear cells, which were removed.
# Samples were processed for fatty acid analysis as described in Mantzioris et al., Am. J. Clin. Nutr., 72:42–8 (2000). Plasma, washed platelet and mononuclear cell pellets were stored at −80° C. Erythrocyte pellets were treated fresh with chloroform:isopropanol (2:1) and the lipid extracts stored at 4° C. Plasma, platelet and mononuclear cell pellets were extracted with chloroform:methanol. The cellular and plasma lipid extracts were fractionated by thin-layer chromatography. For the cellular extracts, the phospholipid fraction was retained and for the plasma extracts, the phospholipid, cholesterol ester, and triglyceride fractions were retained. These were transesterified by methanolysis (1% H2SO4 in methanol at 70° C. for 3 h). Fatty acid methyl esters were separated and quantified with a HEWLETT-PACKARD 6890 gas chromatograph equipped with a 50 m capillary column coated with BPX-70 (0.25 μm film thickness; SGE Pty Ltd, Victoria, Australia) (see Mantzioris et al., supra). Fatty acid standards were obtained from NuChek Prep Inc. (Elysian, Minn.) and included stearidonic acid obtained from Sigma Aldrich Pty Ltd. (Castle Hill, NSW, Australia). All organic solvents contained butylated hydroxy anisole (0.005%) as an antioxidant.
# TNF-α = TNF-α synthesis in LPS-treated whole blood; details: for TNF-α synthesis in LPS-treated whole blood: mean ± SD
# Protocol: as §1, §2
# IL-1β = IL-1β synthesis in LPS-treated whole blood; details: for IL-1β synthesis in LPS-treated whole blood: mean ± SD
# Protocol: as §1, §2
# [2] = Week 3 (after 0.75 g/day for 3 weeks)
# [3] = Week 6 (after 1.5 g/day for 3 weeks)
# [4] = Week −3 (start of run-in, before dosing)
smiles,measurement,setting,value
"CC/C=C\C/C=C\C/C=C\CCCCCCCC(=O)O [ALA, α-linolenic acid]",Effect on LPS-stimulated PGE2 synthesis,prostaglandin E2 (PGE2); 1.5 g/day,no change
same,Effect on LPS-stimulated PGE2 synthesis,"prostaglandin E2 (PGE2); Visit 3, following ingestion of 0.75 g",statistically significant increases
same,PGE2 synthesis in LPS-stimulated whole blood,prostaglandin E2 (PGE2); Week 0 (baseline),4.63 ± 2.21^a ng/mL
same,PGE2 synthesis in LPS-stimulated whole blood,prostaglandin E2 (PGE2); [2],6.25 ± 3.00^b ng/mL
same,PGE2 synthesis in LPS-stimulated whole blood,prostaglandin E2 (PGE2); [3],4.30 ± 1.37^a ng/mL
same,PGE2 synthesis in LPS-stimulated whole blood,prostaglandin E2 (PGE2); [4],4.00 ± 1.65^a ng/mL
same,"DHA (% of total fatty acids), Erythrocyte phospholipid",[1]; 0 week,4.61 ± 0.71^b % of total fatty acids
same,"DHA (% of total fatty acids), Plasma phospholipid",[1]; 0 weeks,3.64 ± 0.65 % of total fatty acids
same,"DPA (% of total fatty acids), Erythrocyte phospholipid",[1]; 0 weeks,3:08 ± 0:35 % of total fatty acids
same,"DPA (% of total fatty acids), Plasma phospholipid",[1]; 0 weeks,1.39 ± 0.26^ab % of total fatty acids
same,"EPA (% of total fatty acids), Monocyte",[1]; 0 weeks,0.57 (0.11)a % of total fatty acids
same,"EPA (% of total fatty acids), Plasma CE",[1]; 0 weeks,1.16 (0.33)ab % of total fatty acids
same,"EPA (% of total fatty acids), Plasma Phospholipid",[1]; 0 weeks,1.16 (0.31)ab % of total fatty acids
same,"EPA (% of total fatty acids), Plasma TG",[1]; 0 weeks,0.27 (0.12) % of total fatty acids
same,"EPA (% of total fatty acids), Platelet",[1]; 0 weeks,0.48 (0.11)a % of total fatty acids
same,"EPA (% of total fatty acids), Red Blood",[1]; 0 weeks,0.88 (0.17)a % of total fatty acids
same,"EPA (% of total fatty acids), Monocyte",[1]; 3 weeks,0.63 (0.14)a3 % of total fatty acids
same,"EPA (% of total fatty acids), Plasma CE",[1]; 3 weeks,1.35 (0.58)bc2 % of total fatty acids
same,"EPA (% of total fatty acids), Plasma Phospholipid",[1]; 3 weeks,1.33 (0.54)bc3 % of total fatty acids
same,"EPA (% of total fatty acids), Plasma TG",[1]; 3 weeks,0.32 (0.13)2 % of total fatty acids
same,"EPA (% of total fatty acids), Platelet",[1]; 3 weeks,0.55 (0.14)a2 % of total fatty acids
same,"EPA (% of total fatty acids), Red Blood",[1]; 3 weeks,0.92 (0.23)a3 % of total fatty acids
same,"EPA (% of total fatty acids), Monocyte",[1]; 6 weeks,0.81 (0.28)b2 % of total fatty acids
same,"EPA (% of total fatty acids), Plasma CE",[1]; 6 weeks,1.41 (0.36)c3 % of total fatty acids
same,"EPA (% of total fatty acids), Plasma Phospholipid",[1]; 6 weeks,1.43 (0.40)c3 % of total fatty acids
same,"EPA (% of total fatty acids), Plasma TG",[1]; 6 weeks,0.34 (0.16)2 % of total fatty acids
same,"EPA (% of total fatty acids), Platelet",[1]; 6 weeks,0.64 (0.21)b2 % of total fatty acids
same,"EPA (% of total fatty acids), Red Blood",[1]; 6 weeks,1.01 (0.18)b3 % of total fatty acids
same,"DHA (% of total fatty acids), Erythrocyte phospholipid",[1]; -3 week,4.87 ± 0.74^a % of total fatty acids
same,"DHA (% of total fatty acids), Plasma phospholipid",[1]; -3 weeks,3.70 ± 0.63 % of total fatty acids
same,"DPA (% of total fatty acids), Erythrocyte phospholipid",[1]; -3 weeks,3.10 ± 0.40 % of total fatty acids
same,"DPA (% of total fatty acids), Plasma phospholipid",[1]; -3 weeks,1.29 ± 0.18^a % of total fatty acids
same,"EPA (% of total fatty acids), Monocyte",[1]; -3 weeks,0.67 (0.20)^a % of total fatty acids
same,"EPA (% of total fatty acids), Plasma CE",[1]; -3 weeks,1.11 (0.26)^a % of total fatty acids
same,"EPA (% of total fatty acids), Plasma Phospholipid",[1]; -3 weeks,1.07 (0.23)^a % of total fatty acids
same,"EPA (% of total fatty acids), Plasma TG",[1]; -3 weeks,0.26 (0.08) % of total fatty acids
same,"EPA (% of total fatty acids), Platelet",[1]; -3 weeks,0.44 (0.12)^a % of total fatty acids
same,"EPA (% of total fatty acids), Red Blood",[1]; -3 weeks,0.88 (0:16)^a % of total fatty acids
same,Effect on LPS-stimulated TNF synthesis,TNF-α; 1.5 g/day,statistically significant decreases
same,TNF-α synthesis in LPS-treated whole blood,TNF-α; Week 0 (baseline),36.8 ± 17.4^a ng/mL
same,TNF-α synthesis in LPS-treated whole blood,TNF-α; [2],32.7 ± 11.9^a ng/mL
same,TNF-α synthesis in LPS-treated whole blood,TNF-α; [3],25.3 ± 7.2^b ng/mL
same,TNF-α synthesis in LPS-treated whole blood,TNF-α; [4],30.9 ± 13.1^a ng/mL
same,Effect on LPS-stimulated IL-1β synthesis,IL-1β; 0.75 g/day or 1.5 g/day (either dose),no effect
same,IL-1β synthesis in LPS-treated whole blood,IL-1β; Week 0 (baseline),96.9 ± 30.9 ng/mL
same,IL-1β synthesis in LPS-treated whole blood,IL-1β; [2],87.3 ± 29.9 ng/mL
same,IL-1β synthesis in LPS-treated whole blood,IL-1β; [3],83.3 ± 24.0 ng/mL
same,IL-1β synthesis in LPS-treated whole blood,IL-1β; [4],97.9 ± 27.4 ng/mL
